Patent publication US20060258630A1, “Method for the prevention and treatment of uveitis” (BioXell S.p.A., priority 2003, published 2006)
Entries after “also recorded” stand apart in the source; their conditions may differ.

Columns and labels:
[1] = Determination of maximum tolerated dose (MTD), serum calcium / hypercalcemia; details: female, C57BL/6, mouse, serum, po
Method: (§1) The maximum tolerated dose of the vitamin D3 compounds of the invention were determined in eight week-old female C57BL/6 mice (3 mice/group) dosed orally (0.1 ml/mouse) with various concentrations of Vitamin D3 analogs daily for four days. Analogs were formulated in miglyol for a final concentration of 0.01, 0.03, 0.1 0.3, 1, 3, 10, 30, 100 and 300 μg/kg when given at 0.1 ml/mouse p.o. daily. Blood for serum calcium assay was drawn by tail bleed on day five, the final day of the study.

[2] = test system: EAU-susceptible B10.RIII mice; assay: Experimental autoimmune uveoretinitis (EAU) induced with IRBP in CFA; type: in vivo; details: for Prevention of EAU: administered from day −6 to 2
From the text: EAU an autoimmune disease mediated by Th1-type uveitogenic CD4+ T cells serves as a model for human posterior uveitis. […] EAU development was followed by funduscopy and confirmed by histopathology on eyes collected 21 days after immunization.

[3] = test system: IFN-γ production in allogeneic PBMC co-culture (MLR); assay: IFN-γ production by allogeneic T cell activation in the mixed leukocyte response (MLR), ELISA; type: cell-based; details: 120 h, 5 days, read-out: INF-γ IC50
Method: Immature dendritic cells. (DC) were prepared as described in Romani, N. et al. (Romani, N. et al. (1996) J. Immunol. Meth. 196:137). IFN-γ production by allogeneic T cell activation in the mixed leukocyte response (MLR) was determined as described in Penna, G., et al., J Immunol., 164: 2405-2411 (2000).
Briefly, peripheral blood mononuclear cells (PBMC) were separated from buffy coats by Ficoll gradient and the same number (3×10^5) of allogeneic PBMC from 2 different donors were co-cultured in 96-well flat-bottom plates. The vitamin D3 compounds were added to each of the cultures.

[4] = test system: primed lymph node cells (LN); assay: In vitro assay of primed lymph node cells (LN) from EAU mice: proliferation, polarization, cytokine and chemokine release; type: cell-based; details: for Inhibition of specific T cell proliferation and T cell polarization: primed lymph node cells, FIG. 4
From the text: It can be concluded that delayed hypersensitivity to IRBP in treated mice is correlated with disease severity. […] Preventive treatment remarkably diminished both IFN-gamma and IL-17 production by LN.
In consistency with disease amelioration, Ag driven chemokine release, such as MIP-1a, Rantes and TARC, is inhibited by Vitamin D3 derivatives as shown in FIG. 5. The further mechanism(s) involved in inhibition of EAU by VDR agonists are being investigated.

female C57BL/6 mice = assay: Determination of maximum tolerated dose (MTD), serum calcium / hypercalcemia; details: for MTD compared with the corresponding parent dihydroxy compound: (2) vs (1), (4) and (5) vs (3); for MTD (mice): oral daily for four days, highest dose without hypercalcemia (serum calcium>10.7 mg/dl)
Method: as §1

## C=C1/C(=C\C=C2/CCC[C@]3(C)[C@@H]([C@H](C)CCCC(C)(C)O)CC[C@@H]23)C[C@@H](O)C[C@@H]1O [1,25(OH)2D3, calcitriol, reference compound]
[1]
  MTD at 4 days: 1 µg/kg
[2]; calcitriol 0.5 μg/kg orally
  Prevention of EAU: can prevent EAU; also recorded: effectively prevents EAU
[3]
  IC50: 0.022 nM
[4]
  Inhibition of specific T cell proliferation and T cell polarization: potent

## CC(=O)OC1C/C(=C/C=C2\CCC[C@]3(C)C(C(C)C/C=C\C(O)(C(F)(F)F)C(F)(F)F)=CCC23)C[C@@H](OC(C)=O)C1 (stereo partly drawn) [(2), 1,3-Di-O-acetyl-1,25-dihydroxy-16,23Z-diene-26,27-hexafluoro-19-nor-cholecalciferol]
Female C57BL/6 mice
  MTD compared with the corresponding parent dihydroxy compound: significantly higher

## CC(CC#CC(O)(C(F)(F)F)C(F)(F)F)C1=CCC2C(=CC=C3CC(O)CC(O)C3)CCCC12C (stereo not drawn) [(3), 1,25-dihydroxy-16-ene-23-yne-26,27-hexafluoro-19-nor-cholecalciferol, reference compound]
Female C57BL/6 mice
  MTD (mice): 0.3 µg/kg

## CC(=O)OC1C/C(=C/C=C2\CCC[C@]3(C)C(C(C)CC#CC(O)(C(F)(F)F)C(F)(F)F)=CCC23)C[C@@H](OC(C)=O)C1 (stereo partly drawn) [(4), 1,3-Di-O-acetyl-1,25-Dihydroxy-16-ene-23-yne-26,27-hexafluoro-19-nor-cholecalciferol]
Female C57BL/6 mice
  MTD compared with the corresponding parent dihydroxy compound: considerably-greater; also recorded: significantly higher
  MTD (mice): 10 µg/kg

## CC(=O)OC1C/C(=C/C=C2\CCC[C@]3(C)C(C(C)CC#CC(OC(C)=O)(C(F)(F)F)C(F)(F)F)=CCC23)C[C@@H](OC(C)=O)C1 (stereo partly drawn) [(5), 1,3,25-Tri-O-acetyl-1,25-Dihydroxy-16-ene-23-yne-26,27-hexafluoro-19-nor-cholecalciferol]
Female C57BL/6 mice
  MTD compared with the corresponding parent dihydroxy compound: considerably-greater; also recorded: significantly higher
  MTD (mice): 3 µg/kg

## C=C1/C(=C\C=C2/CCC[C@]3(C)C(C(C)CC#CC(C)(C)O)=CCC23)CC(OC(C)=O)C[C@@H]1OC(C)=O (stereo partly drawn) [(7), 1,3-Di-O-acetyl-1,25-dihydroxy-16-ene-23-yne-cholecalciferol]
Female C57BL/6 mice
  MTD (mice): 10 µg/kg

## C=C1/C(=C\C=C2/CCC[C@]3(C)C(C(C)C/C=C/C(C)(C)O)=CCC23)CC(OC(C)=O)C[C@@H]1OC(C)=O (stereo partly drawn) [(9), 1,3-Di-O-acetyl-1,25-dihydroxy-16,23E-diene-cholecalciferol]
[1]
  MTD at 4 days: 3 µg/kg
[3]
  IC50: 0.013 nM

## C=C1/C(=C\C=C2/CCC[C@]3(C)C(C(C)CCCC(C)(C)O)=CCC23)CC(OC(C)=O)C[C@@H]1OC(C)=O (stereo partly drawn) [(11), 1,3-Di-O-acetyl-1,25-dihydroxy-16-ene-cholecalciferol]
[1]
  MTD at 4 days: 1 µg/kg
[3]
  IC50: 0.036 nM

## C=C1/C(=C\C=C2/CCC[C@]3(C)C(C(C)CC#CC(OC(C)=O)(C(F)(F)F)C(F)(F)F)=CCC23)CC(OC(C)=O)C[C@@H]1OC(C)=O (stereo partly drawn) [(13), 1,3,25-Tri-O-acetyl-1,25-dihydroxy-16-ene-23-yne-26,27-hexafluoro-cholecalciferol]
Female C57BL/6 mice
  MTD (mice): 3 µg/kg

## C=C1/C(=C\C=C2/CCC[C@]3(C)C(C(C)CC#CC(O)(C(F)(F)F)C(F)(F)F)=CCC23)CC(OC(C)=O)C[C@@H]1OC(C)=O (stereo partly drawn) [(14), 1,3-Di-O-acetyl-1,25-dihydroxy-16-ene-23-yne-26,27-hexafluoro-cholecalciferol]
Female C57BL/6 mice
  MTD (mice): 10 µg/kg

## C=C1/C(=C\C=C2/CCC[C@]3(C)C(C(C)C/C=C/[C@@](C)(O)C(F)(F)F)=CCC23)CC(OC(C)=O)C[C@@H]1OC(C)=O (stereo partly drawn) [(16), 1,3-Di-O-acetyl-1,25-dihydroxy-16,23E-diene-25R,26-trifluoro-cholecalciferol]
[1]
  MTD at 4 days: 0.3 µg/kg
[3]
  IC50: 0.0513 nM

## CC(=O)OC1C/C(=C/C=C2\CCC[C@]3(C)C(C(C)CCCC(C)(C)O)=CCC23)C[C@@H](OC(C)=O)C1 (stereo partly drawn) [(18), 1,3-Di-O-acetyl-1,25-dihydroxy-16-ene-19-nor-cholecalciferol]
[1]
  MTD at 4 days: 3 µg/kg
[3]
  IC50: 0.003 nM

## CC(=O)OC1C/C(=C/C=C2\CCC[C@]3(C)C(C(C)CC#CC(C)(C)O)=CCC23)C[C@@H](OC(C)=O)C1 (stereo partly drawn) [(20), 1,3-Di-O-Acetyl-1,25-dihydroxy-16-ene-23-yne-19-nor-cholecalciferol]
[1]
  MTD at 4 days: 30 µg/kg
[3]
  IC50: 0.025 nM

## CCC(O)(C#CCC(C)C1=CCC2/C(=C/C=C3/CC(OC(C)=O)C[C@H](OC(C)=O)C3)CCC[C@]12C)CC (stereo partly drawn) [(22), 1,3-Di-O-acetyl-1,25-dihydroxy-16-ene-23-yne-26,27-bishomo-19-nor-cholecalciferol]
Female C57BL/6 mice
  MTD (mice): 100 µg/kg

## CC(=O)OC1C/C(=C/C=C2\CCC[C@@]3(C)C2CCC3C2(CC#CC(C)(C)O)CC2)C[C@@H](OC(C)=O)C1 (stereo partly drawn) [(24), 1,3-Di-O-acetyl-1,25-dihydroxy-20-cyclopropyl-23-yne-19-nor-cholecalciferol]
[1]
  MTD at 4 days: 100 µg/kg
[3]
  IC50: 0.802 nM

## CC(=O)OC1C/C(=C/C=C2\CCC[C@@]3(C)C2CCC3C2(CC#CC(OC(C)=O)(C(F)(F)F)C(F)(F)F)CC2)C[C@@H](OC(C)=O)C1 (stereo partly drawn) [(26), 1,3,25-Tri-O-acetyl-1,25-dihydroxy-20-cyclopropyl-23-yne-26,27-hexafluoro-19-nor-cholecalciferol]
Female C57BL/6 mice
  MTD (mice): 10 µg/kg

## CC(=O)OC1C/C(=C/C=C2\CCC[C@@]3(C)C2CCC3C2(CC#CC(O)(C(F)(F)F)C(F)(F)F)CC2)C[C@@H](OC(C)=O)C1 (stereo partly drawn) [(27), 1,3-Di-O-acetyl-1,25-dihydroxy-20-cyclopropyl-23-yne-26,27-hexafluoro-19-nor-cholecalciferol]
Female C57BL/6 mice
  MTD (mice): 10 µg/kg

## C=C1/C(=C\C=C2/CCC[C@@]3(C)C2CCC3C2(CC#CC(C)(C)O)CC2)CC(OC(C)=O)C[C@@H]1OC(C)=O (stereo partly drawn) [(29), 1,3-Di-O-acetyl-1,25-dihydroxy-20-cyclopropyl-23-yne-cholecalciferol]
Female C57BL/6 mice
  MTD (mice): 30 µg/kg

## CC(=O)OC1C/C(=C/C=C2\CCC[C@@]3(C)C2CCC3C2(C/C=C/C(O)(C(F)(F)F)C(F)(F)F)CC2)C[C@@H](OC(C)=O)C1 (stereo partly drawn) [(31), 1,3-Di-O-acetyl-1,25-dihydroxy-20-cyclopropyl-23E-ene-26,27-hexafluoro-19-nor-cholecalciferol]
Female C57BL/6 mice
  MTD (mice): 0.3 µg/kg

## CC(=O)OC1C/C(=C/C=C2\CCC[C@@]3(C)C2CCC3C2(C/C=C\C(O)(C(F)(F)F)C(F)(F)F)CC2)C[C@@H](OC(C)=O)C1 (stereo partly drawn) [(33), 1,3-Di-O-acetyl-1,25-dihydroxy-20-cyclopropyl-23Z-ene-26,27-hexafluoro-19-nor-cholecalciferol]
[1]
  MTD at 4 days: 10 µg/kg
[3]
  IC50: 0.099 nM

## CC(=O)OC1C/C(=C/C=C2\CCC[C@]3(C)C(C4(CCCC(C)(C)O)CC4)=CCC23)C[C@@H](OC(C)=O)C1 (stereo partly drawn) [(37), 1,3-Di-O-acetyl-1α,25-dihydroxy-16-ene-20-cyclopropyl-19-nor-cholecalciferol]
Female C57BL/6 mice
  MTD (mice): 10 µg/kg

## C=C1/C(=C\C=C2/CCC[C@]3(C)C(C4(CCCC(C)(C)O)CC4)=CCC23)CC(OC(C)=O)C[C@@H]1OC(C)=O (stereo partly drawn) [(39), 1,3-Di-O-acetyl-1α,25-hydroxy-16-ene-20-cyclopropyl-cholecalciferol]
Female C57BL/6 mice
  MTD (mice): 3 µg/kg

## C=C1/C(=C\C=C2/CCC[C@@]3(C)C2CCC3C(C)CC#CC(C)(C)O)CC(OC(C)=O)C[C@@H]1OC(C)=O (stereo partly drawn) [(41), 1,3-Di-O-acetyl-1,25-dihydroxy-23-yne-cholecalciferol]
Female C57BL/6 mice
  MTD (mice): 1 µg/kg

## C=C1/C(=C\C=C2/CCC[C@@]3(C)C2CCC3C2(CCCC(C)(C)O)CC2)C[C@@H](OC(C)=O)C[C@@H]1OC(C)=O (stereo partly drawn) [Compound (35), 1,3-Di-O-acetyl-1,25-dihydroxy-20-cyclopropyl-cholecalciferol]
[1]
  MTD at 4 days: 30 µg/kg
[2]; Compound A 10 μg/kg orally, listed as Compound A
  Prevention of EAU: can prevent EAU; also recorded: capable of preventing
[2]; treatment started 7 days after immunization, listed as Compound A
  Inhibition of EAU development, therapeutic treatment: could inhibit EAU development; also recorded: treating EAU
[3]
  IC50: 0.0027 nM
[4]
  Inhibition of specific T cell proliferation and T cell polarization: potent
[4]; therapeutic administration
  IFN-g production: not
  IL-17 production: markedly inhibited
